Earlier results on one compound are cited in patent publication US20190070210A1, “COMPOSITION AND METHODS FOR CONDITIONS ASSOCIATED WITH CHRONIC PULMONARY OBSTRUCTIVE DISEASE” (priority 2017, published 2019).

For this data set the following is noted: solution, 4° C. and neutral pH.

For `NC(=O)c1ccc[n+]([C@@H]2O[C@H](COP(=O)([O-])OP(=O)(O)OC[C@H]3O[C@@H](n4cnc5c(N)ncnc54)[C@H](O)[C@@H]3O)[C@@H](O)[C@H]2O)c1` [NAD+, nicotinamide adenine dinucleotide], the “time for which solutions are stable” value was “about a week”.
